The test system of one test is MCF7. The experiment in a line: Antiproliferative activity against human MCF7 cells after 48 hrs by WST8 assay. Conditions: for GI50: MCF7, 48 h. The test is classed as functional. A general note: Tetrazolium dyes change colour on reduction, which living cells bring about.
In a further test the test system is Hs-578T. The experiment in a line: Antiproliferative activity against human Hs 578T cells after 48 hrs by WST8 assay. The test is classed as functional.

This passage reports GI50 and Activity results from ChEMBL document CHEMBL4266031, “Total Synthesis of Violaceoid A and (-)- and (+)-Violaceoid B” (2018).

Broadly, the GI50 is the concentration that inhibits growth by half.

Bounds are passed on as bounds.

`CCCCCC[C@@H](O)c1c(O)ccc(O)c1CO`: the GI50 with MCF7 and with Hs-578T was over 100 µM throughout.
With `CCCCC/C=C/c1c(O)ccc(O)c1CO`, in the test on MCF7, the Activity result is “Dose-dependent effect” and the GI50 is 61.5 µM. In the test with Hs-578T, the Activity entry is “Dose-dependent effect” and the GI50 came to 59.7 µM.
Turning to `CCCCCC[C@H](O)c1c(O)ccc(O)c1CO`, the GI50 in the test with MCF7 and in the test on Hs-578T was over 100 µM in each case.
